IC50 data for 32 compounds are collected here from patent US9221832B2, “Heterocyclic amide derivatives as P2X7 receptor antagonists” (ACTELION PHARMACEUTICALS LTD., priority 2011, dated 2015).

Each structure is given as a SMILES string.

A word on the IC50: it is the concentration that gives 50% inhibition.

In the experiment the target is human recombinant P2X7 receptor (Homo sapiens (Human), UniProt Q99572). As to the kind of experiment: YO-PRO assay: P2X7 receptor antagonistic activity. It is filed as cell-based. As to conditions: HEK cells expressing human P2X7. As for the experimental part: The P2X7 receptor antagonistic activity of the compounds of formula (I) is determined in accordance with the following experimental method.
Sequence of human recombinant P2X7 receptor (Q99572 whole entry): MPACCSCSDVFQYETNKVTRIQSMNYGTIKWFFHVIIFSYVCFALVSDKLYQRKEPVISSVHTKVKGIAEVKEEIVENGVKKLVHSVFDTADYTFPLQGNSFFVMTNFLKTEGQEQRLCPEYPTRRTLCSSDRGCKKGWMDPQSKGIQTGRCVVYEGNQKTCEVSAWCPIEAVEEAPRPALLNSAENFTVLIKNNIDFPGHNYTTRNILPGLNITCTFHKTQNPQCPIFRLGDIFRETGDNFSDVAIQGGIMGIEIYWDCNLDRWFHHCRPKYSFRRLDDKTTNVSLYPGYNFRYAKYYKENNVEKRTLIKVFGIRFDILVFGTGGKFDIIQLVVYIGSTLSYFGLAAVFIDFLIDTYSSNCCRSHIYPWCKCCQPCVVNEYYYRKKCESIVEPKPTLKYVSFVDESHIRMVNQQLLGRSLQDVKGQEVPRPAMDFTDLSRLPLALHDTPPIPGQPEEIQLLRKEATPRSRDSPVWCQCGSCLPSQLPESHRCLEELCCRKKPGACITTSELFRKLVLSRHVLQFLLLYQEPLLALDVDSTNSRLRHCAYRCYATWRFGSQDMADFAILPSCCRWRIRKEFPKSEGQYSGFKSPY
Cell Line Generation and YO-PRO Assay
Cell line generation was performed in general according to established molecular cloning protocols. Specifically, RNA was extracted from human whole blood using the Qiagen RNeasy kit (Qiagen, CH) according to the manufacturer's instructions. Subsequently cDNA was made (Superscript II, Invitrogen AG, CH) and the human P2X7 gene (genbank ref. BC011913) was amplified with the following primers: […] and […]. The amplified sequence was subsequently ligated into a pcDNA3.1 (+) NotI, NheI digested plasmid. […] Following a 24 h exposure to DNA, cells were trypsinized and re-seeded at low density in the presence of 250 μg Geneticin. Geneticin resistant cells were then selected during two consecutive rounds of cloning by serial limiting dilution with visual inspection. Individual clones were screened for P2X7 expression by applying ATP and recording the resultant uptake of YO-PRO1. Specific cell clones were chosen based on RNA and protein expression. HEK cells stably expressing P2X7 were used to screen drugs using the YO-PRO1 assay. Cells were grown to confluency in adherent culture at 37° C. in a humidified 5% CO2 incubator (split 1/5 every 3-4 days with DMEM, 10% FCS, 1% Penicillin/Streptomycin, 250 μg/ml Geneticin). Adherent cells were detached by incubation with Trypsine (1 ml per 165 cm^2 dish) for 2 minutes, then washed off with 10 ml PBS (without Mg^2+ and Ca^2+), and resuspended in DMEM, 10% FCS, 1% Penicillin/Streptomycin, no Geneticin. […] During this time period, four time points were taken. Each time point comprised the average of several measurements made within a few seconds. […] The FLIPR tetra was equipped with Molecular Devices Screen Works system control software to define and run experimental protocols. […] For IC50 measurements the maximum intensity is plotted against the concentration of compound to determine IC50 values.
For the compound `COc1nccc2c1OCC2NC(=O)Cc1ccc(Cl)cc1Cl` (racemic) [Example 105, rac-2-(2,4-Dichloro-phenyl)-N-(7-methoxy-2,3-dihydro-furo[2,3-c]pyridin-3-yl)-acetamide], the IC50 is 248 nM.

For `O=C(Cc1ccc(Cl)cc1Cl)NC1COc2c1ccnc2Cl` (racemic) [Example 106, rac-N-(7-Chloro-2,3-dihydro-furo[2,3-c]pyridin-3-yl)-2-(2,4-dichloro-phenyl)-acetamide], the IC50 amounted to 52 nM.

Take `N#Cc1c(F)ccc(CC(=O)NC2COc3ncccc32)c1Cl` (racemic) [Example 107, rac-2-(2-Chloro-3-cyano-4-fluoro-phenyl)-N-(2,3-dihydro-furo[2,3-b]pyridin-3-yl)-acetamide]: the IC50 stood at 31 nM.

As to `O=C(Cc1cccc(OC(F)(F)F)c1Cl)NC1COc2ncccc21` (racemic) [Example 108, rac-2-(2-Chloro-3-trifluoromethoxy-phenyl)-N-(2,3-dihydro-furo[2,3-b]pyridin-3-yl)-acetamide], the IC50 worked out at 71 nM.

As to `Cc1cc(Cl)cc(Cl)c1CC(=O)NC1COc2nnccc21` (racemic) [Example 110, rac-2-(2,4-Dichloro-6-methyl-phenyl)-N-(5,6-dihydro-furo[2,3-c]pyridazin-5-yl)-acetamide], the IC50 turned out to be 6.7 nM.

In the case of `CC(=O)c1cccc(CC(=O)NC2COc3ncccc32)c1Cl` (racemic) [Example 111, rac-2-(3-Acetyl-2-chloro-phenyl)-N-(2,3-dihydro-furo[2,3-b]pyridin-3-yl)-acetamide], the half-inhibitory concentration (IC50) is 416 nM.

On to `N#Cc1c(Cl)ccc(CC(=O)NC2COc3ncccc32)c1Cl` (racemic) [Example 112, rac-2-(2,4-Dichloro-3-cyano-phenyl)-N-(2,3-dihydro-furo[2,3-b]pyridin-3-yl)-acetamide], for which the IC50 came to 219 nM.

Consider `N#Cc1cccc(CC(=O)NC2COc3ncccc32)c1C(F)(F)F` (racemic) [Example 113, rac-2-(3-Cyano-2-trifluoromethyl-phenyl)-N-(2,3-dihydro-furo[2,3-b]pyridin-3-yl)-acetamide], for which the 50% inhibitory concentration (IC50) was found to be 28 nM.

Turning to `O=C(Cc1cccc(C(F)F)c1Cl)NC1COc2ncccc21` (racemic) [Example 114, rac-2-(2-Chloro-3-difluoromethyl-phenyl)-N-(2,3-dihydro-furo[2,3-b]pyridin-3-yl)-acetamide], the IC50 was found to be 7.6 nM.

In the case of `O=C(Cc1cccc(C(F)(F)F)c1Cl)NC1COc2cnc(Cl)cc21` (racemic) [Example 115, rac-N-(5-Chloro-2,3-dihydro-furo[2,3-c]pyridin-3-yl)-2-(2-chloro-3-trifluoromethyl-phenyl)-acetamide], the IC50 was determined as 81 nM.

Take `O=C(Cc1ccc(Cl)cc1Cl)NC1COc2cnc(Cl)cc21` (racemic) [Example 116, rac-N-(5-Chloro-2,3-dihydro-furo[2,3-c]pyridin-3-yl)-2-(2,4-dichloro-phenyl)-acetamide]: the IC50 was found to be 350 nM.

`Cc1cncc2c1C(NC(=O)Cc1cccc(C(F)(F)F)c1Cl)CO2` (racemic) [Example 128, rac-2-(2-Chloro-3-trifluoromethyl-phenyl)-N-(4-methyl-2,3-dihydro-furo[2,3-c]pyridin-3-yl)-acetamide]: the half-maximal inhibitory concentration (IC50) stood at 5.6 nM.

On to `O=C(Cc1cccc(C(F)(F)F)c1Cl)NC1COc2c1ccc[n+]2[O-]` (racemic) [Example 129, rac-2-(2-Chloro-3-trifluoromethyl-phenyl)-N-(7-oxy-2,3-dihydro-furo[2,3-b]pyridin-3-yl)-acetamide], for which the IC50 turned out to be 123 nM.

Regarding `Cc1cc(Cl)cc(Cl)c1CC(=O)NC1COc2cncc(C)c21` (racemic) [Example 131, rac-2-(2,4-Dichloro-6-methyl-phenyl)-N-(4-methyl-2,3-dihydro-furo[2,3-c]pyridin-3-yl)-acetamide], the IC50 is 14 nM.

On to `O=C(Cc1cccc(C(F)(F)F)c1Cl)NC1COc2cncc(C3CC3)c21` (racemic) [Example 132, rac-2-(2-Chloro-3-trifluoromethyl-phenyl)-N-(4-cyclopropyl-2,3-dihydro-furo[2,3-c]pyridin-3-yl)-acetamide], for which the IC50 was found to be 506 nM.

With `Cc1ccc2c(n1)OCC2NC(=O)Cc1c(C)cc(Cl)cc1Cl` (racemic) [Example 133, rac-2-(2,4-Dichloro-6-methyl-phenyl)-N-(6-methyl-2,3-dihydro-furo[2,3-b]pyridin-3-yl)-acetamide], the half-inhibitory concentration (IC50) worked out at 43 nM.

For the compound `Cc1ccc2c(n1)OCC2NC(=O)Cc1cccc(C(F)(F)F)c1Cl` (racemic) [Example 134, rac-2-(2-Chloro-3-trifluoromethyl-phenyl)-N-(6-methyl-2,3-dihydro-furo[2,3-b]pyridin-3-yl)-acetamide], the IC50 amounted to 21 nM.

`COc1cc(C)nc2c1C(NC(=O)Cc1cccc(C(F)(F)F)c1Cl)CO2` (racemic) [Example 135, rac-2-(2-Chloro-3-trifluoromethyl-phenyl)-N-(4-methoxy-6-methyl-2,3-dihydro-furo[2,3-b]pyridin-3-yl)-acetamide]: the IC50 is over 4780 nM.

As to `CCOc1cc(C)nc2c1C(NC(=O)Cc1cccc(C(F)(F)F)c1Cl)CO2` (racemic) [Example 136, rac-2-(2-Chloro-3-trifluoromethyl-phenyl)-N-(4-ethoxy-6-methyl-2,3-dihydro-furo[2,3-b]pyridin-3-yl)-acetamide], the 50% inhibitory concentration (IC50) was over 10000 nM.

With `Cc1ccnc2c1C(NC(=O)Cc1cccc(C(F)(F)F)c1Cl)CO2` (racemic) [Example 137, rac-2-(2-Chloro-3-trifluoromethyl-phenyl)-N-(4-methyl-2,3-dihydro-furo[2,3-b]pyridin-3-yl)-acetamide], the half-maximal inhibitory concentration (IC50) came to 37 nM.

Take `Cc1cc(Cl)cc(Cl)c1CC(=O)NC1COc2nccc(C)c21` (racemic) [Example 138, rac-2-(2,4-Dichloro-6-methyl-phenyl)-N-(4-methyl-2,3-dihydro-furo[2,3-b]pyridin-3-yl)-acetamide]: the IC50 is 99 nM.

On to `COc1ccnc2c1C(NC(=O)Cc1cccc(C(F)(F)F)c1Cl)CO2` (racemic) [Example 139, rac-2-(2-Chloro-3-trifluoromethyl-phenyl)-N-(4-methoxy-2,3-dihydro-furo[2,3-b]pyridin-3-yl)-acetamide], for which the IC50 worked out at 272 nM.

As for `O=C(COc1ccc(Cl)cc1Cl)NC1COc2ncccc21` (racemic) [Example 140, rac-2-(2,4-Dichloro-phenoxy)-N-(2,3-dihydro-furo[2,3-b]pyridin-3-yl)-acetamide], the concentration for half-maximal inhibition (IC50) is over 8410 nM.

Turning to `O=C(COc1ccc(Cl)c(Cl)c1)NC1COc2ncccc21` (racemic) [Example 141, rac-2-(3,4-Dichloro-phenoxy)-N-(2,3-dihydro-furo[2,3-b]pyridin-3-yl)-acetamide], the 50% inhibitory concentration (IC50) is over 8630 nM.

As for `Cc1ccc(OCC(=O)NC2COc3ncccc32)c(C)c1` (racemic) [Example 142, rac-N-(2,3-Dihydro-furo[2,3-b]pyridin-3-yl)-2-(2,4-dimethyl-phenoxy)-acetamide], the 50% inhibitory concentration (IC50) was over 9950 nM.

Consider `O=C(Cc1cccc(C(F)(F)F)c1Cl)NC1COc2nc(Cl)ccc21` (racemic) [Example 143, rac-N-(6-Chloro-2,3-dihydro-furo[2,3-b]pyridin-3-yl)-2-(2-chloro-3-trifluoromethyl-phenyl)-acetamide], for which the 50% inhibitory concentration (IC50) worked out at 65 nM.

`Cc1cc(Cl)cc(Cl)c1CC(=O)NC1COc2nc(Cl)ccc21` (racemic) [Example 144, rac-N-(6-Chloro-2,3-dihydro-furo[2,3-b]pyridin-3-yl)-2-(2,4-dichloro-6-methyl-phenyl)-acetamide]: the 50% inhibitory concentration (IC50) is 50 nM.

Regarding `O=C(Cc1cccc(C(F)(F)F)c1Cl)NC1COc2c[n+]([O-])ccc21` (racemic) [Example 148, rac-2-(2-Chloro-3-trifluoromethyl-phenyl)-N-(6-oxy-2,3-dihydro-furo[2,3-c]pyridin-3-yl)-acetamide], the concentration for half-maximal inhibition (IC50) was determined as 165 nM.

Take `Cc1cc(Cl)cc(Cl)c1CC(=O)NC1COc2nccc(C(F)(F)F)c21` (racemic) [Example 151, rac-2-(2,4-Dichloro-6-methyl-phenyl)-N-(4-trifluoromethyl-2,3-dihydro-furo[2,3-b]pyridin-3-yl)-acetamide]: the IC50 was found to be 6690 nM.

Regarding `O=C(Cc1cccc(C(F)(F)F)c1Cl)NC1COc2nccc(C(F)(F)F)c21` (racemic) [Example 152, rac-2-(2-Chloro-3-trifluoromethyl-phenyl)-N-(4-trifluoromethyl-2,3-dihydro-furo[2,3-b]pyridin-3-yl)-acetamide], the IC50 amounted to 861 nM.

`Cc1cc(Cl)cc(Cl)c1CC(=O)NC1COc2ncccc21` (single isomer, unassigned) [Example 6, 2-(2,4-Dichloro-6-methyl-phenyl)-N-(2,3-dihydro-furo[2,3-b]pyridin-3-yl)-acetamide]: the IC50 stood at 16 nM.

In the case of `Cc1cc(Cl)cc(Cl)c1CC(=O)NC1COc2ncccc21` (single isomer, unassigned) [Example 7, 2-(2,4-Dichloro-6-methyl-phenyl)-N-(2,3-dihydro-furo[2,3-b]pyridin-3-yl)-acetamide], the IC50 is 3.5 nM.
